Experimental data from the supplement of paper PMC11208160.

Experiment: recombinant barcode read abundance after kanamycin selection (control-corrected) (log10(CPM+1)); higher = more efficient recombination; sequences stand for … in AGTGCAGAGAAAATCGGCCAGTTTTCTCTGCCTGCAGTCCGCATGCCGT…ATTTATGCAGCGGACTGCCTTTCTCCCAAAGTGATAAACCGGACAGTATCATGGACCGGTTTTCCCGGTAATCCGTATTTGCAAGGTTGGTTTCACT; site = the 11-nt target
Summary of the method: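 Values are log10(CPM+1) from a pooled E. coli screen of targets paired with IS621 bridge RNA target-binding loops. Recombination efficiency here means counts per million of recombinant-junction barcodes, averaged and control-corrected. Plates were chloramphenicol/ampicillin LB agar for the control and chloramphenicol/ampicillin/kanamycin with 0.1 mM IPTG, two replicates each.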

Sequence | recombinant barcode read abundance (log10)
AGGCCTCTTTGGGTTCTAACCTGTTGCCTAG [AGGCCTCCTAG_LTGcore_TT_RTGcore_CT] (site AGGCCTCCTAG) (LTG core: TT, RTG core: CT) | 0.103
AGGCGGGCATGGGTTCTAACCTGTTGCGGAG [AGGCGGGCTCC_LTGcore_CA_RTGcore_CT] (site AGGCGGGCTCC) (LTG core: CA, RTG core: CT) | 2.3
AGGCGGGCATGGGTTCTAACCTGTTGCGGTG [AGGCGGGCTCC_LTGcore_CA_RTGcore_CA] (site AGGCGGGCTCC) (LTG core: CA, RTG core: CA) | 0.776
AGGCGGGCGTGGGTTCTAACCTGTTGCGGCG [AGGCGGGCTCC_LTGcore_CG_RTGcore_CG] (site AGGCGGGCTCC) (LTG core: CG, RTG core: CG) | 0.0653
AGGCGGGCTTGGGTTCTAACCTGTTGCGGAA [AGGCGGGCTCC_LTGcore_CT_RTGcore_TT] (site AGGCGGGCTCC) (LTG core: CT, RTG core: TT) | 0.532
AGGCGGGCTTGGGTTCTAACCTGTTGCGGGG [AGGCGGGCTCC_LTGcore_CT_RTGcore_CC] (site AGGCGGGCTCC) (LTG core: CT, RTG core: CC) | 0.756
AGGCGGGGGTGGGTTCTAACCTGTTGCGGCC [AGGCGGGCTCC_LTGcore_GG_RTGcore_GG] (site AGGCGGGCTCC) (LTG core: GG, RTG core: GG) | 0.0346
AGGCGGGTATGGGTTCTAACCTGTTGCGGAG [AGGCGGGCTCC_LTGcore_TA_RTGcore_CT] (site AGGCGGGCTCC) (LTG core: TA, RTG core: CT) | 0.232
AGGCGGGTTTGGGTTCTAACCTGTTGCGGAG [AGGCGGGCTCC_LTGcore_TT_RTGcore_CT] (site AGGCGGGCTCC) (LTG core: TT, RTG core: CT) | 0.475
AGGCGGTACTGGGTTCTAACCTGTTGCTTAG [AGGCGGTCTAA_LTGcore_AC_RTGcore_CT] (site AGGCGGTCTAA) (LTG core: AC, RTG core: CT) | 0.272
AGGCGGTATTGGGTTCTAACCTGTTGCTTAT [AGGCGGTCTAA_LTGcore_AT_RTGcore_AT] (site AGGCGGTCTAA) (LTG core: AT, RTG core: AT) | 0.109
AGGCGGTCCTGGGTTCTAACCTGTTGCTTAG [AGGCGGTCTAA_LTGcore_CC_RTGcore_CT] (site AGGCGGTCTAA) (LTG core: CC, RTG core: CT) | 0.341
AGGCGGTCCTGGGTTCTAACCTGTTGCTTGG [AGGCGGTCTAA_LTGcore_CC_RTGcore_CC] (site AGGCGGTCTAA) (LTG core: CC, RTG core: CC) | 0.334
AGGCGGTCGTGGGTTCTAACCTGTTGCTTAG [AGGCGGTCTAA_LTGcore_CG_RTGcore_CT] (site AGGCGGTCTAA) (LTG core: CG, RTG core: CT) | 0.398
AGGCGGTCTTGGGTTCTAACCTGTTGCTTCA [AGGCGGTCTAA_LTGcore_CT_RTGcore_TG] (site AGGCGGTCTAA) (LTG core: CT, RTG core: TG) | 0.171
AGGCGGTCTTGGGTTCTAACCTGTTGCTTCG [AGGCGGTCTAA_LTGcore_CT_RTGcore_CG] (site AGGCGGTCTAA) (LTG core: CT, RTG core: CG) | 0.117
AGGCGGTCTTGGGTTCTAACCTGTTGCTTTA [AGGCGGTCTAA_LTGcore_CT_RTGcore_TA] (site AGGCGGTCTAA) (LTG core: CT, RTG core: TA) | 0.353
AGGCGGTGTTGGGTTCTAACCTGTTGCTTAC [AGGCGGTCTAA_LTGcore_GT_RTGcore_GT] (site AGGCGGTCTAA) (LTG core: GT, RTG core: GT) | 0.278
AGGCGGTTATGGGTTCTAACCTGTTGCTTAG [AGGCGGTCTAA_LTGcore_TA_RTGcore_CT] (site AGGCGGTCTAA) (LTG core: TA, RTG core: CT) | 0.168
